Laboratory results as given in US20170044150A1, “IDENTIFICATION OF COMPOUNDS WHICH INHIBIT ATG8-ATG3 PROTEIN-PROTEIN INTERACTION AND THEIR USE AS ANTIPARASITICAL AGENTS” (THE JOHNS HOPKINS UNIVERSITY, priority 2014, published 2017).

Columns and labels:
hLC3-hAtg3 interaction = target: T1, hLC3-hAtg3 interaction (Homo sapiens, UniProt Q9GZQ8); assay: SPR protein-protein interaction assay, hLC3-hAtg3; assay type: binding; conditions: 500 μM
T1 construct: made in house; host or cells: E. coli Rosetta 2
Experimental: Surface Plasmon Resonance (SPR) protein-protein interaction assay. All measurements were carried out on a BiaCore 3000 instrument. We used the previously described SPR competition assay to test inhibition of the PfAtg8-PfAtg3 and hLC3-hAtg3 interaction. The standard running buffer was 10 mM HEPES, 150 mM NaCl, 0.01% Tween 20, adjusted to pH 7.5. Prior to performing SPR assays, all solutions were sterile filtered and degassed for 1 h at room temperature. For small molecule inhibitor studies, the same running buffer was supplemented with 1% DMSO. All dose dependency measurements were carried out in triplicate and corrected for DMSO absorption effects using double referencing with interspersed blank injections and an untreated flow cell on the SPR chip and the SPR analysis software Scrubber 2.0 (BioLogics). For each interaction pair, a new CM5 SPR chip was used. To exclude surface decay during the experiment, positive control injections were interspersed every 12th injection. For all interaction studies, the Atg3 homologue was immobilized and the corresponding Atg8 partner was passed as an analyte over the chip in either the presence or absence of small molecule inhibitors, dissolved to 100 mM in 100% DMSO and tested at 500 μM final concentration. […]

P. falciparum 3D7 = assay: SYBR Green I growth inhibition assay, blood stage; assay type: cell-based; conditions: Plasmodium falciparum, 3D7, 3D7 blood stage cultures; read-out: IC50
Experimental: P. falciparum blood stage culturing. P. falciparum 3D7 and FCR3 cultures were maintained using modified, previously published methods at 37° C., 2% hematocrit of human red blood cells (Science 1976, 193, 673-675). Complete culture media consisted of sterile RPMI 1640 media (Life Technologies), supplemented with 10% human serum, 0.005% hypoxanthine, and buffered with final concentrations of 0.6% HEPES and 0.26% NaHCO3. The FCR3 strain was maintained at 3% CO2 and 5% O2, 92% N2 atmosphere, while the 3D7 strain was maintained at 5% CO2, 5% O2, 90% N2 atmosphere.
SYBR Green I growth inhibition assay. 10 μL of 10× compound diluted in RPMI 1640 media (Gibco) with a constant concentration of 1% DMSO was added to a 96 well plate (Costar), 90 μL of 1.5% ring stage, synchronized with 5% w/v sorbitol P. falciparum 3D7 parasites, 1% hematocrit, in culture media with 10% v/v human serum with 10 μg/mL gentamycin. Each compound concentration and 1% v/v DMSO controls were run in triplicate. Plates were incubated at 37° C. in 5% O2, 5% CO2 and 90% N2 for 72 hours. Plates were frozen, thawed, and incubated with 100-μL 2× SYBR green in lysis buffer (20 mM Tris pH 7.5, 5 mM EDTA, 0.008% Saponin, 0.08% TritonX-100) in the dark for at least one hour. Fluorescence was measured with a plate reader (HTS 7000, Perkin Elmer) at excitation/emission wavelengths of 485/535 nm.
Plasmodium parasite growth inhibition assay. P. falciparum 3D7 parasites were cultured as previously described (J Med Chem 57:4521-4531(2014)). Briefly, the parasites were cultured in 10% v/v human serum with 10 μg/mL gentamycin and synchronized with 5% w/v sorbitol. 1.5% ring stage parasites were added to 96 well plates (Costar) containing serial dilutions, performed in triplicate, of compound in RPMI 1640 media (Gibco). Plates were incubated at 37° C. in 5% O2, 5% CO2, and 90% N2 for 72 h. Plates were frozen, thawed, and incubated with 100 μL 2× SYBR green in lysis buffer (20 mM Tris pH 7.5, 5 mM EDTA, 0.008% Saponin, 0.08% TritonX-100) in the dark for 1 h. Fluorescence was measured with a plate reader (HTS 7000, PerkinElmer) at excitation/emission wavelengths of 485/535 nm.

PfAtg8 = assay: Immunoblot analysis of PfAtg8 in P. falciparum blood stage cultures; assay type: cell-based; conditions: 100 μM, five-hour treatment
Excerpt: Immunoblot analysis of P. falciparum blood stage. […] RBCs were harvested with centrifugation, lysed with 0.2% saponin, and RBC lysate was removed through three 1× PBS washes. Parasites were harvested by centrifugation and washed in 1× PBS with Complete EDTA-free protease inhibitors (Roche) and lysed by repeated vortexing and boiling in SDS reducing sample buffer. […] HRP-conjugated secondary antibodies (Southern Biotech) were detected by SuperSignal West Femto (Thermo Scientific) or Amersham™ ECL™ Prime (GE Healthcare) chemiluminescent substrate. AP-conjugated secondary antibodies (EMD Millipore) were detected using NBT/BCIP (Promega) colorimetric stain. Total protein levels were visualized with ProAct™ Membrane Stain (Amresco) and quantified with ImageJ. Parasite morphology at time of harvesting was visualized with light microscopy at 100× magnification on Olympus BX53 system microscope (Olympus America, Inc.).

PfAtg8^CM = PfAtg8^CM (Plasmodium falciparum, UniProt Q8IJK2); assay: Thermal shift assay; conditions: 100 μM to 2 mM
HC-04 cells = assay: HC-04 hepatocyte viability / cytotoxicity (Annexin-V, PI flow cytometry); assay type: cell-based, human; conditions: 96 hour treatment
Experimental: Detection of Annexin-V positive and PI-positive cells in hepatocyte cultures was done by flow cytometry according to the manufacturer's instruction (Invitrogen™, Life Technologies, Grand Island, N.Y., USA).
Hepatocyte cytotoxicity assay. Hepatocyte cytotoxicity assays were carried out in triplicate at two concentrations of inhibitory compounds using HC-04 cells as previously described. Flow cytometry was used to assess two cytotoxicity markers via staining, namely propidium iodine (PI) and Annexin-V.

[1] = target: T2, PfAtg8-PfAtg3 interaction (Plasmodium falciparum, UniProt Q8IJK2); assay: SPR protein-protein interaction assay, PfAtg8-PfAtg3 (VLS compounds); assay type: binding, P. falciparum; conditions: read-out: SPR-IC50; dose-dependent inhibition of plasmodial Atg8-Atg3
T2 construct: rows headed: SPR-IC50
T2 sequence (Q8IJK2 1-124 C32I/C119S/C122S): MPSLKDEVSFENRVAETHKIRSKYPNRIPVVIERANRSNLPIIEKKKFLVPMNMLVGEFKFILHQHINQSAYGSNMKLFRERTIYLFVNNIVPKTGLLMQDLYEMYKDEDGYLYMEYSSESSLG
Experimental: Surface Plasmon Resonance (SPR) protein-protein interaction assay. All measurements were carried out on a BiaCore 3000 instrument. We used the previously described SPR competition assay to test inhibition of the PfAtg8-PfAtg3 and hLC3-hAtg3 interaction. The standard running buffer was 10 mM HEPES, 150 mM NaCl, 0.01% Tween 20, adjusted to pH 7.5. Prior to performing SPR assays, all solutions were sterile filtered and degassed for 1 h at room temperature. For small molecule inhibitor studies, the same running buffer was supplemented with 1% DMSO. All dose dependency measurements were carried out in triplicate and corrected for DMSO absorption effects using double referencing with interspersed blank injections and an untreated flow cell on the SPR chip and the SPR analysis software Scrubber 2.0 (BioLogics). For each interaction pair, a new CM5 SPR chip was used. To exclude surface decay during the experiment, positive control injections were interspersed every 12th injection. For all interaction studies, the Atg3 homologue was immobilized and the corresponding Atg8 partner was passed as an analyte over the chip in either the presence or absence of small molecule inhibitors, dissolved to 100 mM in 100% DMSO and tested at 500 μM final concentration. Prior to the immobilization of Atg3 to an SPR chip, a pH scouting from pH 6.0 to pH 4.0 in intervals of 0.5 pH units was carried out to determine the best pre-concentration conditions for immobilization. Briefly, flow cells of an SPR chip were activated using N-hydroxysuccinimide (NHS) and 1-ethyl-3-(3-dimethylaminopropyl)carbodiimide (EDC) for 7 min with a flow rate of 20 μl/min. For PfAtg3 immobilization, a solution of 50 μg/ml of PfAtg3 in 10 mM sodium acetate pH 5.0 was passed over one flow cell until >500 Response Units (RU) were captured. The same procedure was followed for the immobilization of hAtg3. Activated free binding sites on the chip were blocked using 1 M ethanolamine for an additional 7 min. All experiments were carried out at 25° C. with a 40 μl/min flow rate and 75 s contact time, followed by a 1 min dissociation time and a 25 μl regeneration injection of 2 M MgCl2.
The dose-response curves were used to determine the approximate concentration of analyte (PfAtg8 or hLC3) needed to obtain a particular response unit (RU), typically in the range of 100-150 RU's. A fixed amount of analyte was then passed over the chip resulting in at least 100-150 response units (RU) in the absence of small molecules.

P. falciparum 3D7-GFP = assay type: cell-based; conditions: 96 hrs post infection
Experimental: In vitro infection of human hepatocytes with P. falciparum 3D7-GFP. The HC-04 cell line (ATCC, Manassas, Va., USA) was maintained in complete medium (IMDM containing 2.5% FCS, 100 units/ml penicillin, 100 μg/ml streptomycin and 2 mM L-glutamine, all from GIBCO®, Life Technologies, Grand Island, N.Y.). P. falciparum 3D7-GFP parasite strain (PLoS ONE 2010, 5, e9156) was propagated in the Parasitology Core facility, the Johns Hopkins Malaria Research Institute. In vitro infection of human hepatocytes was done as described previously (PLoS ONE 2013, 8, e75321). Briefly, salivary glands were sequestered from infected Anopheles gambiae mosquitoes at day 17 after exposure to infective blood meal and homogenates were separated on an OptiPrep™ Density Gradient (Sigma-Aldrich, St. Louis, Mo.) at 12,000×g for 10 minutes. Sporozoites were collected from the gradient interface, washed in complete medium, counted using a hemocytometer and incubated with HC-04 cells at 3:1 sporozoite to hepatocyte ratio for 2 hours at 37° C. […]
Detection of P. falciparum exoerythrocytic forms in vitro. HC-04 human hepatocyte cell line (ATCC, Manassas, Va., USA) was maintained in complete medium (IMDM containing 2.5% FCS, 100 units/ml penicillin, 100 μg/ml streptomycin and 2 mM L-glutamine, all from GIBCO®, Life Technologies, Grand Island, N.Y.). P. falciparum 3D7HT-GFP parasite strain (PLoS One. 5(2):e9156. doi:10.1371/journal.pone.0009156 (2010)) was propagated in the Parasitology Core facility of the Johns Hopkins Malaria Research Institute. In vitro infection of human hepatocytes, and detection and quantification of P. falciparum 3D7HT-GFP EEFs by flow cytometry were performed as previously described (PLoS One. 8(9):e75321. doi:10.1371/journal.pone.0075321 (2013)).

Row | SMILES | effect on hAtg3-hLC3 binding (hLC3-hAtg3 interaction) | IC50 (P. falciparum 3D7) [µM] | increase of PfAtg8 protein levels compared to the loading control (PfAtg8) | mobility of Atg8 (PfAtg8) | effect on Tm of PfAtg8^CM (PfAtg8^CM) | cell viability of HC-04 cells (HC-04 cells) | IC50 [1] [µM] | reduction of the number of infected HC-04 cells (P. falciparum 3D7-GFP; 30 μM) [%] | GFP fluorescence intensity (P. falciparum 3D7-GFP)
1 | Cc1cccn2cc(C(=O)NCC3CCN(Cc4cnc[nH]4)C3)nc12 (stereo not drawn) [Compound C24, N-([1-(1H-imidazol-5-ylmethyl)pyrrolidin-3-yl]methyl)-8-methyl-imidazo[3,2-a] pyridine-2-carboxamide] | significant increase in binding |  |  |  |  |  |  |  | 
2 | Cc1cccc(CNC(=O)NCC2CCN(Cc3ccccn3)C2)c1 (stereo not drawn) [Compound C25, 1-[(3-methylphenyl)methyl]-3-([1-pyridin-2-ylmethyl-pyrrolidin-3-yl]methyl)urea] |  | 19 ± 6 | over 10 fold | retarded, indicative of the unlipidated Atg8 species | dose-dependent decrease | did not affect cell viability | 18.5 ± 2.1 | 30 | little effect
